These results are taken from patent publication US10508107B2, “Morpholine derivative” (Hoffmann-La Roche Inc., priority 2016, dated 2019).

In series [1] the target is human DAT (Homo sapiens (Human), UniProt Q01959). The series can be described thus: Binding to dopamine transporter (DAT) in vitro, [3H]-WIN35,428 SPA. The following applies: for DAT selectivity ratio versus hTAAR1 EC50: DAT Ki / hTAAR1 EC50; for Ki: [3H]-WIN35,428 radioligand. As to the method: Binding to dopamine transporter (DAT) in vitro. Human embryonic kidney (HEK) 293 cells (Invitrogen, Zug, Switzerland) stably transfected with human DAT were cultured. The cells were collected and washed three times with phosphate-buffered saline (PBS). The pellets were frozen at −80° C. The pellets were then resuspended in 400 ml of 20 mM HEPES-NaOH, pH 7.4, that contained 10 mM EDTA at 4° C. After homogenization with a Polytron (Kinematica, Lucerne,
Switzerland) at 10000 rotations per minute (rpm) for 15 s, the homogenates were centrifuged at 48000×g for 30 min at 4° C. Aliquots of the membrane stocks were frozen at −80° C. All assays were performed at least three times. The test compounds were diluted in […] of binding buffer (252 mM NaCl, 5.4 mM KCl, 20 mM Na2HPO4, 3.52 mM KH2PO4, pH 7.4) and 10 point dilution curves were made and transferred to 96-well white polystyrene assay plates (Sigma-Aldrich, Buchs, Switzerland). […] Twenty microliters of binding buffer alone in the assay plate defined the total binding, whereas binding in the presence of 10 μM indatraline defined nonspecific binding. Frozen DAT membrane stocks were thawed and resuspended to a concentration of approximately 0.04 mg protein/ml binding buffer (1:1 diluted in H2O) using a polytron tissue homogenizer. The membrane homogenates (40 μg/ml) were then lightly mixed for 5-30 min with polyvinyl toluene […] wheat germ agglutinin-coated scintillation proximity assay (WGASPA; Amersham Biosciences) beads at 7.7 mg beads/ml homogenate. One hundred thirty microliters of the membrane/bead mixture were added to each well of the assay plate that contained radioligand and test compounds (final volume in each well, 200 μl) to start the assay, which was incubated for approximately 2 h at room temperature with agitation. The assay plates were then counted in the PVT SPA counting mode of a Packard Topcount. […] Non-linear regression was used to fit the data to sigmoid curves and determine IC50 values for binding and uptake. Ki values for binding and uptake were calculated using the following Cheng-Prusoff equation: Ki=IC50/(1+[S]/Km).

In series [2] the target is hERG potassium channel (Homo sapiens (Human), UniProt Q12809). The series can be described thus: hERG whole-cell patch-clamp in stably transfected CHO cells. The class given is cell-based. Particulars: for selectivity ratio: pH 7.4, hERG IC20 / hTAAR1 EC50, read-out: hERG selectivity ratio versus hTAAR1 EC50; for IC50: patch-clamp, CHO cells, 36±1° C. Here is the method: The whole-cell patch-clamp technique was used to investigate the effects of the test items on hERG (human-ether-a-go-go related gene) potassium channels in stably transfected CHO cells near physiological temperature (36±1° C.). The effects of compounds on hERG K^+-current parameters were evaluated at 4 concentrations (0.3-3-30-300 μM) in at least 3 CHO cells stably expressing the hERG channel. For electrophysiological measurements cells were seeded onto 35 mm sterile culture dishes containing 2 ml culture medium without Hygromycin B. Cells were cultivated at a density that enabled single cells (without visible connections to neighbouring cells) to be measured. Cells were incubated at 37° C. in a humidified atmosphere with 5% CO2 (rel. humidity about 95%). The cells were continuously maintained in and passaged in sterile culture flasks containing nutrient mixture F-12 (DMEM/F-12 with L-Glutamine) supplemented with 10% foetal bovine serum and 10% penicillin/streptomycin solution. […] The 35 mm culture dishes upon which cells were seeded at a density allowing single cells to be recorded were placed on the dish holder of the microscope and continuously perfused (at approximately 1 ml/min) with the bath solution (sodium chloride 150 mM, potassium chloride 4 mM, calcium chloride 1.2 mM, magnesium chloride 1 mM, HEPES 10 mM, pH (NaOH) 7.4) at near physiological temperature (36±1° C.). After formation of a Gigaohm seal between the patch electrodes and individual hERG stably transfected CHO cells (pipette resistance range: 2.0 MΩ-7.0 Mω; seal resistance range: >1 Gω) the cell membrane across the pipette tip was ruptured to assure electrical access to the cell interior (whole-cell patch-configuration). In case the quality of the seal was poor, the process of seal formation was repeated with a different cell and a new pipette. […] This voltage protocol was run at least 10 times at intervals of 10 s. If current density was judged to be too low for measurement, another cell was recorded. […] During wash-in of the test item the voltage protocol indicated above was run continuously again at 10 s intervals until the steady-state level of block was reached. The four test item concentrations of the compound were applied sequentially to 3 cells in a cumulative manner. […] Based on the IC50 value the IC20 was estimated. Each concentration of the test item was analyzed in three experiments (n=3).
hERG potassium channel, sequence (Q12809 whole entry): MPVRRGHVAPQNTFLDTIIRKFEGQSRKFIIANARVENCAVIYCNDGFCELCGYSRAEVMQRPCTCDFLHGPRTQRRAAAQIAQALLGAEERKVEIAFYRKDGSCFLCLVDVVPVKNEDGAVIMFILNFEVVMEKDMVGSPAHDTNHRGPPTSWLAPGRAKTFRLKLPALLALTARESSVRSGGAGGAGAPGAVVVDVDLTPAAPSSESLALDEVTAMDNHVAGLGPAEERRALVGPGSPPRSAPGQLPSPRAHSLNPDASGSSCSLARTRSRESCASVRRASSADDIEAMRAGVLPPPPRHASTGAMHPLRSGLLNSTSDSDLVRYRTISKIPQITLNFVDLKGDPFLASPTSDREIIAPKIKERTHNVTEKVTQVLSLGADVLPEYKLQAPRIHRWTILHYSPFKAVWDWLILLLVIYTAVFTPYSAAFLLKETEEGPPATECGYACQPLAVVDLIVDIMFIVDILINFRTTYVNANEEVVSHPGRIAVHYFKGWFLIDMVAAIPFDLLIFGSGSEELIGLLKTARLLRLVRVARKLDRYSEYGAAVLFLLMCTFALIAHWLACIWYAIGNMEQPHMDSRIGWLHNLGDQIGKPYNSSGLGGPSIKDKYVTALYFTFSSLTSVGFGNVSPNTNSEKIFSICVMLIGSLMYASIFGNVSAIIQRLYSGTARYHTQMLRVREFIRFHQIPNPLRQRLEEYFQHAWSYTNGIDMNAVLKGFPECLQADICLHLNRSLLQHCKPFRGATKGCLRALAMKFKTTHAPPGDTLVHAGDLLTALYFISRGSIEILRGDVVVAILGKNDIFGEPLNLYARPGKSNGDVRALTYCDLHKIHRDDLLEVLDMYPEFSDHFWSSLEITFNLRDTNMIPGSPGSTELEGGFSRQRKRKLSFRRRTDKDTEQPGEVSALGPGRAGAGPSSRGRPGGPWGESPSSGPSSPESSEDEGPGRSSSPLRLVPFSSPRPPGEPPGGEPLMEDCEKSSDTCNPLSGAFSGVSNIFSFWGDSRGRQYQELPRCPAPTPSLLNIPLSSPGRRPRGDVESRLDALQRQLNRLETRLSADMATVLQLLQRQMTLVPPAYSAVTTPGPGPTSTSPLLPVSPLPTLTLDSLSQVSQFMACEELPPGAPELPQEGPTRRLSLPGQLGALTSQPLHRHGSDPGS
For orientation: The hERG channel carries a current that helps repolarise heart muscle cells.

For series [3], the target named is human TAAR1 (Homo sapiens (Human), UniProt Q96RJ0). In words: cAMP functional assay in HEK293 cells expressing human TAAR1. Particulars: for hTAAR1 efficacy*: % agonist activity, β-phenylethylamine = 100% agonism; for EC50: cAMP, HEK293 cells expressing human TAAR1, read-out: hTAAR1 EC50. The class given is cell-based. As to the method: For the construction of expression plasmids the coding sequences of human TAAR 1 were amplified from genomic DNA essentially as described by Lindemann et al.[14]. The Expand High Fidelity PCR System (Roche Diagnostics) was used with 1.5 mM Mg^2+ and purified PCR products were cloned into pCR2.1-TOPO cloning vector (Invitrogen) following the instructions of the manufacturer. PCR products were subcloned into the pIRESneo2 vector (BD Clontech, Palo Alto, Calif.), and expression vectors were sequence verified before introduction in cell lines.
human TAAR1, sequence (Q96RJ0 whole entry): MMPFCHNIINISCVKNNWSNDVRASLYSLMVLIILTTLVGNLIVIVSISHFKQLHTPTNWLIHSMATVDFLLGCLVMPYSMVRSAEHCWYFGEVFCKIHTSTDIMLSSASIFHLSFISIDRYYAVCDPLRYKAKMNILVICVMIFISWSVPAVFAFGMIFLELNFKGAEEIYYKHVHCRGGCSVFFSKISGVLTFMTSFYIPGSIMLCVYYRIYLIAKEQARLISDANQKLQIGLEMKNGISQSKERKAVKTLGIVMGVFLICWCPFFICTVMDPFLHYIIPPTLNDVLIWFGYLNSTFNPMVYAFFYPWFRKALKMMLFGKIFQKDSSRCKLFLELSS
HEK293 cells (ATCC # CRL-1573) were cultured essentially as described by Lindemann et al. (2005). For the generation of stably transfected cell lines HEK293 cells were transfected with the pIRESneo2 expression plasmids containing the TAAR coding sequences (described above) with Lipofectamine 2000 (Invitrogen) according to the instructions of the manufacturer, and 24 hrs post transfection the culture medium was supplemented with 1 mg/ml G418 (Sigma, Buchs, Switzerland). After a culture period of about 10 d clones were isolated, expanded and tested for responsiveness to trace amines (all compounds purchased from Sigma) with the cAMP Biotrak Enzyme immunoassay (EIA) System (Amersham) following the non-acetylation EIA procedure provided by the manufacturer.
cAMP measurements were performed as described previously (Revel et al., Proc. Natl. Acad. Sci. USA 2011, 108, 8485-8490). In brief, cells that expressed human TAAR1 were plated on 96-well plates (BIOCOAT 6640; Becton Dickinson, Allschwil, Switzerland) and incubated for 20 h at 37° C. Prior to stimulation of the cells with a broad concentration range of agonists for 30 min at 37° C., the cells were washed with PBS and preincubated with PBS that contained 1 mM 3-isobutyl-1-methylxanthine for 10 min at 37° C. and 5% CO2. Stimulation with 0.2% DMSO was set as the basal level, and the effect of 30 μM β-PEA was set as the maximal response. Subsequently, the cells were lysed, and cAMP assays were performed according to the manufacturer's instructions (cAMP kit; Upstate/Millipore, Schaffhausen, Switzerland). Finally, the plates were read with a luminometer (1420 Multilabel counter; PerkinElmer, Schwerzenbach, Switzerland), and the amount of cAMP was calculated. The results were obtained from at least three independent experiments. Experiments were run in duplicate or triplicate. EC50 values are presented as mean ±standard deviation (in μM).

The mark [4] stands for this setting: estimated based on the IC50 value.
Setting [5] is: human, CHO cells stably expressing hERG.
[6] abbreviates: human, CHO cells stably expressing hERG, pH 7.4, estimated based on the IC50 value.

The structures appear in SMILES notation. Like-named read-outs stand apart in the source and are kept apart here. Where only a bound is given, the exact number is not on record here.

As a reminder, the Ki is the dissociation constant of the complex between target and ligand, obtained from inhibition or displacement. A high value points to weaker binding. For orientation: IC20 means the concentration needed for an effect of 20%. By IC50 is commonly meant the concentration that gives 50% inhibition. The term EC50 denotes the midpoint of the concentration-response curve.

human DAT, sequence (Q01959 whole entry): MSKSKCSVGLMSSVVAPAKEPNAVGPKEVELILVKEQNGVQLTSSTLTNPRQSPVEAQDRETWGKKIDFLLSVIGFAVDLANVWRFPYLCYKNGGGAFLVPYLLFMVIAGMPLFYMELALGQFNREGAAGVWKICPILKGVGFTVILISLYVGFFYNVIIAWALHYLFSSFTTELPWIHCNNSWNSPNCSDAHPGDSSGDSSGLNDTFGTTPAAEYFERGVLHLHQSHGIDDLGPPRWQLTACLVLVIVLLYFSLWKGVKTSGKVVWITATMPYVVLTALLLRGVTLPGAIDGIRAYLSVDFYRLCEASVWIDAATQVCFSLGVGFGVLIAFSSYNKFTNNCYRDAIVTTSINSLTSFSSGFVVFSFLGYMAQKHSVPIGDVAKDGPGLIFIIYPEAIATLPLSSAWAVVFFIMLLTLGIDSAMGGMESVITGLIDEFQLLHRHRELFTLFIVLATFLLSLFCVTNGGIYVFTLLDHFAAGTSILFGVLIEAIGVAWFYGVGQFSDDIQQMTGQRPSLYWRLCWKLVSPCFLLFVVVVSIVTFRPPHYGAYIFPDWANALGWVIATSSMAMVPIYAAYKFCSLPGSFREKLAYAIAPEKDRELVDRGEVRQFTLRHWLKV

On to `O=C(Nc1ccc([C@H]2CNCCO2)cc1)c1cncc(Cl)c1` [Example 13, 5-Chloro-N-[4-[(2S)-morpholin-2-yl]phenyl]pyridine-3-carboxamide], for which, in series [1], the “Ratio DAT Ki/hTAAR1 EC50” value is 3, the “DAT selectivity ratio versus hTAAR1 EC50” value was 3 fold and the Ki is 1310 nM. In series [2], the “Ratio hERG IC20/hTAAR1 EC50” value worked out at 23 and the IC50 is 66000 nM. Besides, the IC20 in series [2] (setting [4]) was 9140 nM. In addition, in series [2] (setting [5]), the selectivity ratio worked out at 23. In series [3], the “hTAAR1 efficacy*” value was found to be 37% and the EC50 was determined as 404 nM. Besides, the EC50 in series [3] (listed as example 13) turned out to be 405 nM.
In the case of `O=C(Nc1ccc([C@H]2CNCCO2)cc1)c1cc(Cl)nc(Cl)c1` [Example 7, 2,6-Dichloro-N-[4-[(2S)-morpholin-2-yl]phenyl]pyridine-4-carboxamide], in series [1], the “Ratio DAT Ki/hTAAR1 EC50” value worked out at 9, the “DAT selectivity ratio versus hTAAR1 EC50” value came to 9 fold and the Ki is 790 nM. Besides, in series [2], the “Ratio hERG IC20/hTAAR1 EC50” value was found to be 43 and 11400 nM corresponded to half-maximal inhibition (IC50). The IC20 in series [2] (setting [4]) is 3670 nM. Further, the IC20 in series [2] (setting [6]) was 3570 nM. In addition, in series [2] (setting [5]), the selectivity ratio came out at 43. In series [3], the “hTAAR1 efficacy*” value worked out at 57% and the EC50 is 84.9 nM.
`O=C(Nc1ccc([C@H]2CNCCO2)cc1)c1coc(-c2ccccc2)n1` [Example 15, N-[4-[(2S)-Morpholin-2-yl]phenyl]-2-phenyl-1,3-oxazole-4-carboxamide]: in series [1], the “Ratio DAT Ki/hTAAR1 EC50” value is >39 and the Ki is > 26100 nM. For the same compound, in series [2], the “Ratio hERG IC20/hTAAR1 EC50” value is 4 and the IC50 came out at 9650 nM. Also, in series [2] (setting [4]), the IC20 is 2400 nM. Moreover, the selectivity ratio in series [2] (setting [5]) is 4. In addition, in series [3], the “hTAAR1 efficacy*” value was determined as 35% and the EC50 is 663 nM. The EC50 in series [3] (listed as example 15) stood at 663 nM.
`CCc1[nH]nc(C(=O)Nc2ccc([C@H]3CNCCO3)cc2)c1C` [Example 1, 5-Ethyl-4-methyl-N-[4-[(2S)-morpholin-2-yl]phenyl]-1H-pyrazole-3-carboxamide]: the Ki in series [1] and in series [1] (listed as example 1) was 27500 nM throughout. Further, the IC20 in series [2] (setting [4]) was 36200 nM. The compound also registered an IC50 in series [2] of 217000 nM. Moreover, the “hTAAR1 efficacy*” value in series [3] is given as 42%. Moreover, the “functional activity at hTAAR1” value in series [3] (in vitro) is “partial agonist”.
Take `O=C(Nc1ccc([C@H]2CNCCO2)cc1)c1ccc(Cl)cn1` [Example 12, 5-Chloro-N-[4-[(2S)-morpholin-2-yl]phenyl]pyridine-2-carboxamide]: in series [1], the “Ratio DAT Ki/hTAAR1 EC50” value is given as 8; the “DAT selectivity ratio versus hTAAR1 EC50” value turned out to be 8 fold; the affinity, expressed as Ki, was 1780 nM. In series [2], the “Ratio hERG IC20/hTAAR1 EC50” value came out at 15 and the IC50 was 14300 nM. For the same compound, the IC20 in series [2] (setting [6]) was 3210 nM. In series [2] (setting [5]), the selectivity ratio is 15. In addition, in series [3], the “hTAAR1 efficacy*” value was determined as 40% and the EC50 was 212 nM. Also, the EC50 in series [3] (listed as example 12) came out at 212 nM.
As for `CCc1[nH]nc(C(=O)Nc2ccc([C@@H]3CNCCO3)cc2)c1C` [Example 2, 5-Ethyl-4-methyl-N-[4-[(2R)-morpholin-2-yl]phenyl]-1H-pyrazole-3-carboxamide], the “hTAAR1 efficacy*” value in series [3] turned out to be 38%.
On to `O=C(Nc1ccc([C@H]2CNCCO2)cc1)c1ccc(Cl)nc1` [Example 4, 6-Chloro-N-[4-[(2S)-morpholin-2-yl]phenyl]pyridine-3-carboxamide], for which, in series [1], the “Ratio DAT Ki/hTAAR1 EC50” value amounted to 40, the “DAT selectivity ratio versus hTAAR1 EC50” value is on record as 40 fold and the Ki was 2500 nM. Moreover, in series [2], the “Ratio hERG IC20/hTAAR1 EC50” value worked out at 201 and 49700 nM corresponded to half-maximal inhibition (IC50). The IC20 in series [2] (setting [6]) is 12400 nM. Further, in series [3], the “hTAAR1 efficacy*” value is listed as 49% and the EC50 came to 61.9 nM.
`O=C(Nc1ccc([C@H]2CNCCO2)cc1)c1ccc(C(F)(F)F)nc1` [Example 11, N-[4-[(2S)-Morpholin-2-yl]phenyl]-6-(trifluoromethyl)pyridine-3-carboxamide]: in series [1], the Ki stood at 2330 nM. Also, in series [3], the “hTAAR1 efficacy*” value is on record as 46% and the EC50 amounted to 203 nM. Also, the EC50 in series [3] (listed as example 11) was found to be 203 nM.
In series [1], `O=C(Nc1ccc([C@H]2CNCCO2)cc1)c1cnc(-c2ccccc2)s1` [Example 6, N-[4-[(2S)-Morpholin-2-yl]phenyl]-2-phenyl-1,3-thiazole-5-carboxamide] displayed a Ki of 5930 nM. Besides, the Ki in series [1] (listed as example 6) turned out to be 5900 nM. In addition, in series [3], the “hTAAR1 efficacy*” value was found to be 30% and the EC50 is 80 nM.
Regarding `O=C(Nc1ccc([C@H]2CNCCO2)cc1)c1cnc(Cl)c(Cl)c1` [Example 9, 5,6-Dichloro-N-[4-[(2S)-morpholin-2-yl]phenyl]pyridine-3-carboxamide], in series [1], the Ki amounted to 480 nM. In series [3], the “hTAAR1 efficacy*” value was found to be 32% and the EC50 was determined as 144 nM. For the same compound, in series [3] (listed as example 9), the EC50 came out at 144 nM.
